Data: PubChem BioAssay AID1259407 (Chemical Carcinogenesis Research Information System (CCRIS), 2018)
Activity calls are given as the source filed them. No rule for the calls is given here.

Test system: CCRIS mutagenicity, Ames/micronucleus/aberration tests
Assay: CCRIS mutagenicity studies
[1] = End Point: IN VITRO CHROMOSOMAL ABERRATIONS, Test System: CHINESE HAMSTER OVARY CELLS, Metabolic Activation: RAT, LIVER, S-9, AROCLOR 1254
[2] = Test System: AMES SALMONELLA TYPHIMURIUM, Strain/Indicator: TA100, Metabolic Activation: HAMSTER, LIVER, S-9, AROCLOR 1254, Method: PREINCUBATION
[3] = Test System: AMES SALMONELLA TYPHIMURIUM, Strain/Indicator: TA1535, Metabolic Activation: NONE, Method: PREINCUBATION
[4] = Test System: AMES SALMONELLA TYPHIMURIUM, Strain/Indicator: TA1537, Metabolic Activation: NONE, Method: PREINCUBATION

SMILES: COc1ccccc1[N+](=O)[O-]
- mutagenic call [1]: active; positive; precipitation occurred at all doses
- mutagenic call (End Point: IN VITRO CHROMOSOMAL ABERRATIONS, Test System: CHL CELLS, Metabolic Activation: RAT, LIVER, S-9, SODIUM PHENOBARBITAL AND 5,6-BENZOFLAVONE): active; positive (structural changes)
- mutagenic call (Test System: AMES SALMONELLA TYPHIMURIUM, Strain/Indicator: TA97, Metabolic Activation: HAMSTER LIVER S-9, AROCLOR 1254 (10%), Method: PREINCUBATION): inactive; negative
- mutagenic call (Test System: AMES SALMONELLA TYPHIMURIUM, Strain/Indicator: TA97, Metabolic Activation: NONE, Method: PREINCUBATION): inactive; negative
- mutagenic call (Test System: AMES SALMONELLA TYPHIMURIUM, Strain/Indicator: TA97, Metabolic Activation: RAT LIVER S-9, AROCLOR 1254 (10%), Method: PREINCUBATION): inactive; negative
- mutagenic call (Test System: AMES SALMONELLA TYPHIMURIUM, Strain/Indicator: TA98, Metabolic Activation: HAMSTER LIVER S-9, AROCLOR 1254 (10%), Method: PREINCUBATION): inactive; negative
- mutagenic call (Test System: AMES SALMONELLA TYPHIMURIUM, Strain/Indicator: TA98, Metabolic Activation: RAT LIVER S-9, AROCLOR 1254 (10%), Method: PREINCUBATION): inactive; negative
- mutagenic call (Test System: AMES SALMONELLA TYPHIMURIUM, Strain/Indicator: TA98, Metabolic Activation: RAT LIVER S-9, PHENOBARBITAL AND BETA-NAPHTHOFLAVONE, Method: PREINCUBATION): inactive; negative
- mutagenic call (Test System: AMES SALMONELLA TYPHIMURIUM, Strain/Indicator: TA98, Metabolic Activation: RAT, LIVER, S-9, KANECHLOR 500, Method: PREINCUBATION): inactive; negative
- mutagenic call (Test System: AMES SALMONELLA TYPHIMURIUM, Strain/Indicator: TA100, Metabolic Activation: HAMSTER LIVER S-9, AROCLOR 1254 (10%), Method: PREINCUBATION): active; positive
- mutagenic call (Test System: AMES SALMONELLA TYPHIMURIUM, Strain/Indicator: TA100, Metabolic Activation: HAMSTER, LIVER, S-9, AROCLOR 1254, FLAVIN MONONUCLEOTIDE, Method: PREINCUBATION): inactive; negative
- mutagenic call [2]: inactive; negative
- mutagenic call (Test System: AMES SALMONELLA TYPHIMURIUM, Strain/Indicator: TA100, Metabolic Activation: RAT LIVER S-9, AROCLOR 1254 (10%), Method: PREINCUBATION): active; positive
- mutagenic call (Test System: AMES SALMONELLA TYPHIMURIUM, Strain/Indicator: TA100, Metabolic Activation: RAT LIVER S-9, PHENOBARBITAL AND BETA-NAPHTHOFLAVONE, Method: PREINCUBATION): active; positive
- mutagenic call (Test System: AMES SALMONELLA TYPHIMURIUM, Strain/Indicator: TA100, Metabolic Activation: RAT, LIVER, S-9, AROCLOR 1254, FLAVIN MONONUCLEOTIDE, Method: PREINCUBATION): inactive; negative
- mutagenic call (Test System: AMES SALMONELLA TYPHIMURIUM, Strain/Indicator: TA100, Metabolic Activation: RAT, LIVER, S-9, AROCLOR 1254, Method: STANDARD PLATE): active; positive
- mutagenic call (Test System: AMES SALMONELLA TYPHIMURIUM, Strain/Indicator: TA100, Metabolic Activation: RAT, LIVER, S-9, KANECHLOR 500, Method: PREINCUBATION): active; positive
- mutagenic call (Test System: AMES SALMONELLA TYPHIMURIUM, Strain/Indicator: TA1535, Metabolic Activation: HAMSTER LIVER S-9, AROCLOR 1254 (10%), Method: PREINCUBATION): inactive; negative
- mutagenic call [3]: inactive; negative
- mutagenic call (Test System: AMES SALMONELLA TYPHIMURIUM, Strain/Indicator: TA1535, Metabolic Activation: RAT LIVER S-9, AROCLOR 1254 (10%), Method: PREINCUBATION): inactive; negative
- mutagenic call (Test System: AMES SALMONELLA TYPHIMURIUM, Strain/Indicator: TA1535, Metabolic Activation: RAT LIVER S-9, PHENOBARBITAL AND BETA-NAPHTHOFLAVONE, Method: PREINCUBATION): inactive; negative
- mutagenic call (Test System: AMES SALMONELLA TYPHIMURIUM, Strain/Indicator: TA1537, Metabolic Activation: HAMSTER LIVER S-9, AROCLOR 1254 (10%), Method: PREINCUBATION): inactive; negative
- mutagenic call [4]: inactive; negative
- mutagenic call (Test System: AMES SALMONELLA TYPHIMURIUM, Strain/Indicator: TA1537, Metabolic Activation: RAT LIVER S-9, AROCLOR 1254 (10%), Method: PREINCUBATION): inactive; negative
- mutagenic call (Test System: AMES SALMONELLA TYPHIMURIUM, Strain/Indicator: TA1537, Metabolic Activation: RAT LIVER S-9, PHENOBARBITAL AND BETA-NAPHTHOFLAVONE, Method: PREINCUBATION): inactive; negative
- mutagenic call (Test System: AMES SALMONELLA TYPHIMURIUM, Strain/Indicator: TA1538, Metabolic Activation: NONE, Method: PREINCUBATION): active; positive
- mutagenic call (Test System: E.COLI, Strain/Indicator: WP2UVRA, Metabolic Activation: NONE, Method: PREINCUBATION): inactive; negative
- mutagenic call (Test System: E.COLI, Strain/Indicator: WP2UVRA, Metabolic Activation: RAT LIVER S-9, PHENOBARBITAL AND BETA-NAPHTHOFLAVONE, Method: PREINCUBATION): inactive; negative

SMILES: CCCCC1C(=O)N(c2ccccc2)N(c2ccccc2)C1=O
- mutagenic call (End Point: IN VITRO CHROMOSOMAL ABERRATIONS, Test System: CHINESE HAMSTER OVARY CELLS, Metabolic Activation: NONE): inactive; negative
- mutagenic call [1]: active; positive
- mutagenic call (Test System: AMES SALMONELLA TYPHIMURIUM, Strain/Indicator: TA97A, Metabolic Activation: NONE, Method: STANDARD PLATE): inactive; negative
- mutagenic call (Test System: AMES SALMONELLA TYPHIMURIUM, Strain/Indicator: TA97A, Metabolic Activation: RAT LIVER S-9, PHENOBARBITAL, Method: STANDARD PLATE): inactive; negative
- mutagenic call (Test System: AMES SALMONELLA TYPHIMURIUM, Strain/Indicator: TA98, Metabolic Activation: HAMSTER, LIVER, S-9, AROCLOR 1254, Method: PREINCUBATION): inactive; negative
- mutagenic call (Test System: AMES SALMONELLA TYPHIMURIUM, Strain/Indicator: TA98, Metabolic Activation: NONE, Method: PREINCUBATION): inactive; negative
- mutagenic call (Test System: AMES SALMONELLA TYPHIMURIUM, Strain/Indicator: TA98, Metabolic Activation: NONE, Method: STANDARD PLATE): inactive; negative
- mutagenic call (Test System: AMES SALMONELLA TYPHIMURIUM, Strain/Indicator: TA98, Metabolic Activation: RAT LIVER S-9, PHENOBARBITAL, Method: STANDARD PLATE): inactive; negative
- mutagenic call (Test System: AMES SALMONELLA TYPHIMURIUM, Strain/Indicator: TA98, Metabolic Activation: RAT, LIVER, S-9, AROCLOR 1254, Method: PREINCUBATION): inactive; negative
- mutagenic call [2]: inactive; negative
- mutagenic call (Test System: AMES SALMONELLA TYPHIMURIUM, Strain/Indicator: TA100, Metabolic Activation: NONE, Method: PREINCUBATION): inactive; negative
- mutagenic call (Test System: AMES SALMONELLA TYPHIMURIUM, Strain/Indicator: TA100, Metabolic Activation: NONE, Method: STANDARD PLATE): inactive; negative
- mutagenic call (Test System: AMES SALMONELLA TYPHIMURIUM, Strain/Indicator: TA100, Metabolic Activation: RAT LIVER S-9 PHENOBARBITAL, Method: STANDARD PLATE): inactive; negative
- mutagenic call (Test System: AMES SALMONELLA TYPHIMURIUM, Strain/Indicator: TA100, Metabolic Activation: RAT, LIVER, S-9, AROCLOR 1254, Method: PREINCUBATION): inactive; negative
- mutagenic call (Test System: AMES SALMONELLA TYPHIMURIUM, Strain/Indicator: TA102, Metabolic Activation: NONE, Method: STANDARD PLATE): inactive; negative
- mutagenic call (Test System: AMES SALMONELLA TYPHIMURIUM, Strain/Indicator: TA102, Metabolic Activation: RAT LIVER S-9, PHENOBARBITAL, Method: STANDARD PLATE): inactive; negative
- mutagenic call (Test System: AMES SALMONELLA TYPHIMURIUM, Strain/Indicator: TA1535, Metabolic Activation: HAMSTER, LIVER, S-9, AROCLOR 1254, Method: PREINCUBATION): inactive; negative
- mutagenic call [3]: inactive; negative
- mutagenic call (Test System: AMES SALMONELLA TYPHIMURIUM, Strain/Indicator: TA1535, Metabolic Activation: RAT, LIVER, S-9, AROCLOR 1254, Method: PREINCUBATION): inactive; negative
- mutagenic call (Test System: AMES SALMONELLA TYPHIMURIUM, Strain/Indicator: TA1537, Metabolic Activation: HAMSTER, LIVER, S-9, AROCLOR 1254, Method: PREINCUBATION): inactive; negative
- mutagenic call [4]: inactive; negative
- mutagenic call (Test System: AMES SALMONELLA TYPHIMURIUM, Strain/Indicator: TA1537, Metabolic Activation: RAT, LIVER, S-9, AROCLOR 1254, Method: PREINCUBATION): inactive; negative
- mutagenic call (Test System: MOUSE LYMPHOMA, Strain/Indicator: L5178Y (TK+/TK-), Metabolic Activation: NONE, Method: SUSPENSION/PLATE): active; positive
- mutagenic call (Test System: MOUSE LYMPHOMA, Strain/Indicator: L5178Y (TK+/TK-), Metabolic Activation: RAT, LIVER, S-9, AROCLOR 1254, Method: SUSPENSION/PLATE): active; positive
